Measurements from US20240287138A1, “CYCLIC PEPTIDES FOR INHIBITING TNF RECEPTOR 1 ACTIVITY” (Merck Sharp & Dohme LLC, priority 2023, published 2024).
Numbered stars: 1 amine (or outer) side, 2 acyl side, 3 side chain; on linkers, the order of the positions; unused ones are H or OH. Bridge positions count the residues as written; N and C are the ends. Square brackets hold non-standard residues; d marks the D form. Peptide text beside a SMILES is read from it. Trp(βS-Me,7-OMe) = COc1cccc2c([C@H](C)[C@H](N)C(=O)O)c[nH]c12; Ala(1-bicyclo(1.1.1)pentyl) = N[C@@H](CC12CC(C1)C2)C(=O)O; Trp(7-CN) = N#Cc1cccc2c(C[C@H](N)C(=O)O)c[nH]c12; Trp(7-Cl) = N[C@@H](Cc1c[nH]c2c(Cl)cccc12)C(=O)O; Phe(4-CONH2) = NC(=O)c1ccc(C[C@H](N)C(=O)O)cc1; Phe(4-COOH) = N[C@@H](Cc1ccc(C(=O)O)cc1)C(=O)O; Trp(7-aza) = N[C@@H](Cc1c[nH]c2ncccc12)C(=O)O; Pip(5R-OH) = O=C(O)[C@@H]1CC[C@@H](O)CN1; X1 = O=C([C@@H]1CC[C@H](N[*:1])C1)[*:2]; 4Pal = N[C@@H](Cc1ccncc1)C(=O)O; dHyp = O=C(O)[C@H]1C[C@H](O)CN1; NEtAla = CCN[C@@H](C)C(=O)O; αMeS = C[C@](N)(CO)C(=O)O; Nle = CCCC[C@H](N)C(=O)O; Sar = CNCC(=O)O

Target: T1, TNFα-induced NF-κB signal transduction pathway (TNFR1 signaling) in THP-1 cells (Homo sapiens, UniProt P19438)
T1 sequence (P19438 30-455): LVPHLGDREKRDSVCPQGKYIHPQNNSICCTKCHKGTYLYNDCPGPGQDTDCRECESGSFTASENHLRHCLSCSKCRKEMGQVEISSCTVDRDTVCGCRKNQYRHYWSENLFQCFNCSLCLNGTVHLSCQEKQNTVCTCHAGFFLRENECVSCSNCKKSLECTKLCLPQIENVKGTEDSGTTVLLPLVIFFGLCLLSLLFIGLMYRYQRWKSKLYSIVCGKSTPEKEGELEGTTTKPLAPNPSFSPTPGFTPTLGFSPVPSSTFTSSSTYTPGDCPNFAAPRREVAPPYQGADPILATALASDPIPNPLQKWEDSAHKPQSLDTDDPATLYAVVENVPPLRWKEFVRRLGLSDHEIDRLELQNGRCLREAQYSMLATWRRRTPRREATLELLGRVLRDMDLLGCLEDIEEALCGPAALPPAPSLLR
Experiment: THP-1 Lucia NF-κB reporter cell assay, inhibition of TNFα-induced NF-κB signaling
Type: cell-based
Details: THP-1 NF-κB Lucia reporter cells, 10 ng/mL TNFα, 16-18 h, secreted luciferase; read-out: THP-1 IC50
In short: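 THP-1 Lucia NF-κB cells, 20k/well, no selection antibiotics; peptide pre-inc 1 h 37 °C; + recombinant human TNFα 10 ng/mL final; o.n.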

Row | SMILES | IC50
1 | CCN1C(=O)[C@H](Cc2c[nH]c3c(Cl)cccc23)NC(=O)[C@H](CO)NC(=O)[C@H](Cc2ccncc2)NC(=O)[C@H](CC23CC(C2)C3)NC(=O)CSC[C@@H](C(N)=O)NC(=O)[C@H](Cc2c[nH]c3ncccc23)NC(=O)CN(C)C(=O)[C@H](Cc2ccc(O)cc2)NC(=O)[C@H](Cc2ccc(C(=O)O)cc2)NC(=O)[C@](C)(CO)NC(=O)[C@H](Cc2c[nH]c3ncccc23)NC(=O)[C@H](Cc2ccc(C(=O)O)cc2)NC(=O)[C@H](CC(N)=O)NC(=O)[C@@H]1C [SEQ ID NO. 232] ({CH2CO}-[Ala(1-bicyclo(1.1.1)pentyl)][4Pal]S[Trp(7-Cl)][NEtAla]N[Phe(4-COOH)][Trp(7-aza)][αMeS][Phe(4-COOH)]Y[Sar][Trp(7-aza)]C-NH2; thioether N-14) | 6.3 nM
2 | CCCC[C@@H]1NC(=O)CSC[C@@H](C(N)=O)NC(=O)[C@H]([C@@H](C)c2c[nH]c3c(OC)cccc23)NC(=O)CN(C)C(=O)[C@H](Cc2ccc(O)cc2)NC(=O)[C@H](Cc2ccc(C(=O)O)cc2)NC(=O)[C@](C)(CO)NC(=O)[C@H](Cc2c[nH]c3c(Cl)cccc23)NC(=O)[C@H](Cc2ccncc2)NC(=O)[C@H](CC(N)=O)NC(=O)[C@H]2CCCN2C(=O)[C@H](Cc2c[nH]c3ccccc23)NC(=O)[C@@H]2CC[C@@H](O)CN2C(=O)[C@H](Cc2ccncc2)NC1=O [SEQ ID NO. 203] ({CH2CO}-[Nle][4Pal][Pip(5R-OH)]W[dP]N[4Pal][Trp(7-Cl)][αMeS][Phe(4-COOH)]Y[Sar][Trp(βS-Me,7-OMe)]C-NH2; thioether N-14) | 1.6 nM
3 | CCCC[C@@H]1NC(=O)[C@@H]2CC[C@@H](C2)NC(=O)[C@H]([C@@H](C)c2c[nH]c3c(OC)cccc23)NC(=O)CN(C)C(=O)[C@H](Cc2ccc(C(N)=O)cc2)NC(=O)[C@H](Cc2ccc(C(N)=O)cc2)NC(=O)[C@](C)(CO)NC(=O)[C@H](Cc2c[nH]c3c(C#N)cccc23)NC(=O)[C@H](Cc2ccc(C(=O)O)cc2)NC(=O)[C@H](CC(N)=O)NC(=O)[C@H]2C[C@H](OC)CN2C(=O)[C@H](Cc2c[nH]c3ccccc23)NC(=O)[C@@H]2CC[C@@H](O)CN2C(=O)[C@H](Cc2ccncc2)NC1=O [SEQ ID NO. 14] (cyclo([4Pal][Pip(5R-OH)]W[dHyp](Me)N[Phe(4-COOH)][Trp(7-CN)][αMeS][Phe(4-CONH2)][Phe(4-CONH2)][Sar][Trp(βS-Me,7-OMe)][X1][Nle])) | 0.8 nM
